{"source": "patent US20110300147A9", "about": "“Inhibiting tumor cell invasion, metastasis and angiogenesis” (The Scripps Research institute, priority 2005, published 2011)", "key": {"[1]": {"assay": "cytotoxicity of AEPI-1 in 293 cells expressing legumain", "assay_type": "cell-based", "conditions": "human, 293 cells recombinantly expressing legumain; 293 cells that recombinantly expressed legumain", "method": "(§1) To further evaluate the role of asparaginyl endopeptidases in angiogenesis, four asparaginyl endopeptidases inhibitors (AEPI) were tested using recombinant legumain in an amidolytic activity assay with fluorescent substrate. FIG. 4A graphically illustrates the effects that AEPI-1 to AEPI-4 (also referred to as legumain inhibitors LI-1 to LI-4) have on asparaginyl endopeptidase activity. […] No apparent cytotoxicity was observed until almost 100 μM AEPI-1 was used in these assays (FIG. 4B)."}, "[2]": {"target": "legumain cleavage of caspase 9 (Homo sapiens, UniProt Q99538)", "sequence (Q99538 18-323, species assumed)": "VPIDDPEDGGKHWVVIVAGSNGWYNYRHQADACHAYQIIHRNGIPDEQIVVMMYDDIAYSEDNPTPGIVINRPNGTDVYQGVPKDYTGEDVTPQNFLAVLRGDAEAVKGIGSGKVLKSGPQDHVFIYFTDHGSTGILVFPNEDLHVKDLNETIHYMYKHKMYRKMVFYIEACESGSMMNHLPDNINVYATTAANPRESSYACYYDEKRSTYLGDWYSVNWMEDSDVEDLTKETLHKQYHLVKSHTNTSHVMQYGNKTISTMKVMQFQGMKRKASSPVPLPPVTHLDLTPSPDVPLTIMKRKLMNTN", "assay": "caspase 9 activity after legumain cleavage", "assay_type": "biochemical", "text": "Legumain catalytically inactivates caspase 9. In addition to suppression of cathepsin B, legumain efficiently inactivates caspase 9 and depletes the cell of pro-caspase 9 (FIG. 20A). […] Loss of pro-caspase 9 led to reduced caspase 3 activation in a reconstituted apoptosome system (FIG. 20D), which was further confirmed by detection of reduced caspase 3 activity (FIG. 20E). These observations indicate that asparaginyl endopeptidases play a critical role in cell survival and tumorigenesis."}, "[3]": {"assay": "cytotoxicity of AEPI-1 in wild type 293 cells", "assay_type": "cell-based, human", "conditions": "human, wild type 293 cells", "method": "as §1"}, "wild type 293 cells": {"test_system": "wild type 293 cells", "assay": "cytotoxicity of AEPI-1 in wild type 293 cells", "assay_type": "cell-based, human", "conditions": "wild type and legumain-expressing 293 cells", "method": "as §1"}, "[4]": {"test_system": "mouse aorta vessel sprouts", "assay": "mouse aortic sprouting assay", "assay_type": "cell-based", "method": "The effects of AEPI-1 on angiogenesis were further evaluated in mouse aortic sprouting assays. First, AEPI-1 was added to the beginning of the experiment to determine its effect on initiation of vessel sprouts (FIG. 5A). […] In the second assay, AEPI-1 was added at the third day after aortic sprouts were already formed (FIG. 5B), to ascertain whether asparaginyl endopeptidase activity was required for continued extension of vessel growth."}}, "data": [{"smiles": "CCOC(=O)C1OC1C(=O)N(CC(N)=O)NC(=O)[C@H](C)NC(=O)[C@H](C)NC(=O)OCc1ccccc1", "note": "(stereo partly drawn) [AEPI-1, Cbz-Ala-Ala-AzaAsn-(S,S)-EPCOOEt]", "values": [{"measurement": "CC50", "setting": "[1]", "value": 430, "unit": "µM"}, {"measurement": "loss of caspase 9 activity caused by legumain cleavage", "setting": "[2]", "value": "inhibited"}, {"measurement": "CC50", "setting": "[3]", "value": 320, "unit": "µM"}, {"measurement": "concentration until which no apparent cytotoxicity was observed", "setting": "wild type 293 cells", "value": "~100", "unit": "µM"}, {"measurement": "FGF-2 induced vessel sprouts (initiation)", "setting": "[4]; AEPI-1 added at the beginning of the experiment", "value": "inhibited FGF-2 induced vessel sprouts in a dose dependent manner"}, {"measurement": "extension of established vascular outgrowth", "setting": "[4]; AEPI-1 added at the third day after aortic sprouts were formed", "value": "significantly reduced"}]}]}
